Test results reported in patent US7993687B2, “Compositions and methods for management of diabetes” (priority 2006, dated 2011).

How the values were obtained:
Type in all cases: cell-based, rat
[1] = test system: p42/44 MAPK (Thr202/Tyr204); assay: Western blot of MAPK phosphorylation in H4IIE cells; conditions: for phosphorylation of MAPK (FIG. 9): 6 minutes, insulin 250 nM, 2 μL of BWE, D-CI or MI solution
Description: Tissue culture media, antibiotics, fetal bovine serum (FBS) and Nunc tissue culture plates were purchased from Invitrogen Canada Inc. (Burlington, Ontario, Canada, L7P 1A1). Insulin (Sigma-Aldrich Canada Ltd., Oakville, Ontario, Canada, L6H 6J8) was dissolved in water and added directly to cells at a concentration of 250 nM unless otherwise indicated. The BWE was prepared and analyzed as described in Example 1. Two μL of the BWE were added directly to cells unless otherwise indicated. […] Myo-inositol (Sigma-Aldrich Canada Ltd.) and D-chiro-inositol (Industrial Research Ltd., Wellington, New Zealand) were dissolved in water at an equal concentration to the amounts present in the BWE (Table 3) and 2 μL of each solution (0.1% v/v final concentration) was added directly to cells.
(§1) Rat H4IIE hepatoma cells (American Type Culture Collection, CRL 1548) were cultured following the method disclosed by Yau et al., (1998, Eur. J. Biochem. 253: 91-1). The H4IIE cells were maintained in α-modified Eagle's media containing 10% FBS, 2 mM glutamine, 25 μg·mL^−1 streptomycin and 25 units·mL^−1 penicillin. Cells were plated and grown to 70% confluence. All cells were placed into serum-free medium for 72 h before addition of stimulating agents to ensure entry into a quiescent state.
(§2) Cultures of quiescent H4IIE cells or quiescent FAO cells were placed into 12-well culture dishes containing 2 mL serum-free medium, and then stimulated by direct addition of the inhibitors listed in Table 1 (volumes of additions were 10 μL or less) without replacing the medium. […] The cells in 12-well culture dishes were incubated with stimulating agents for 6 minutes and rinsed with phosphate buffered saline (PBS; 0.9% NaCl, 0.1 M Na3PO4, pH 7.1).
(§3) Cellular protein extracts were prepared by addition of 200 μL 2×SDS/gel loading buffer (0.125 M Tris pH 6.8, 2% SDS, 10% glycerol) to H4IIE cells in 12-well culture dishes. The samples were briefly sonicated, and protein content measured using the BCA protein assay kit. Aliquots containing equal amounts of protein were mixed with bromophenol blue (0.5% (w/v) final concentration) and 2-mercaptoethanol (5% (v/v) final concentration), heated at 95° C. and loaded onto 7.5% or 10% polyacrylamide gels. […] Primary antibodies (diluted 1:1000 in 3% (w/v) BSA) were incubated with the membrane for 60 min at 22° C. Membranes were subsequently washed four times and incubated for an additional 60 min at 1 8-22° C. in 1% (w/v) BSA-TBST with diluted HRP-coupled secondary antibody (1:10 000). HRP was detected using the ECL chemiluminescent system after the membranes had been washed four times.
Quantification of data obtained on film (Kodak X-omat) was accomplished with a GS800 imaging densitometer (Bio-Rad Laboratories) under nonsaturating conditions with local background subtraction. Although multiple exposures were acquired to ensure the absence of film saturation, the experimental figures typically show longer exposures selected specifically for visual presentation and not necessarily used for data analysis. Graphical data are presented as means±SE for a minimum of three replicate samples. […]

[2] = test system: mitogen-activated protein kinase (MAPK); assay: Western blot of MAPK phosphorylation in FAO hepatoma cells
Description: FAO cells are related to H4IIE since both cell lines were derived from Reuber H35 cells (Richardson et al., 1969, J. Cell Biol. 40: 236-247). […] FAO hepatoma cells were propagated under the same culture conditions used for H4IIE cells. Quiescent FAO cells were obtained by placing the cells into serum-free medium for 3 days.
Cultures of quiescent H4IIE cells or quiescent FAO cells were placed into 12-well culture dishes containing 2 mL serum-free medium, and then stimulated by direct addition of the inhibitors listed in Table 1 (volumes of additions were 10 μL or less) without replacing the medium. Inhibitors were added 10 minutes before the stimulating agents except for pertussis toxin which was added 4 hours prior. The cells in 12-well culture dishes were incubated with stimulating agents for 6 minutes and rinsed with phosphate buffered saline (PBS; 0.9% NaCl, 0.1 M Na3PO4, pH 7.1).
as §3
(§4) Quantification of data obtained on film (Kodak X-omat) was accomplished with a GS800 imaging densitometer (Bio-Rad Laboratories) under nonsaturating conditions with local background subtraction. […]

[3] = test system: Insulin receptor substrate-I (Tyr941); assay: Western blot of IRS-1 phosphorylation in H4IIE cells; conditions: 6 minutes
Description: (§5) Tissue culture media, antibiotics, fetal bovine serum (FBS) and Nunc tissue culture plates were purchased from Invitrogen Canada Inc. (Burlington, Ontario, Canada, L7P 1A1). Insulin (Sigma-Aldrich Canada Ltd., Oakville, Ontario, Canada, L6H 6J8) was dissolved in water and added directly to cells at a concentration of 250 nM unless otherwise indicated. The BWE was prepared and analyzed as described in Example 1. Two μL of the BWE were added directly to cells unless otherwise indicated. This amount was chosen on the basis of equivalence to insulin. Myo-inositol (Sigma-Aldrich Canada Ltd.) and D-chiro-inositol (Industrial Research Ltd., Wellington, New Zealand) were dissolved in water at an equal concentration to the amounts present in the BWE (Table 3) and 2 μL of each solution (0.1% v/v final concentration) was added directly to cells.
as §1, with “state. […]” for “state.”
(§6) Cellular protein extracts were prepared by addition of 200 μL 2×SDS/gel loading buffer (0.125 M Tris pH 6.8, 2% SDS, 10% glycerol) to H4IIE cells in 12-well culture dishes. The samples were briefly sonicated, and protein content measured using the BCA protein assay kit. […] HRP was detected using the ECL chemiluminescent system after the membranes had been washed four times.
as §4

Akt (Ser473) = assay: Western blot of Akt phosphorylation in H4IIE cells; conditions: 6 minutes
Description: as §5
as §1, with “state. […]” for “state.”
as §6, §4

Src (Tyr527) = assay: Western blot of Src phosphorylation in H4IIE cells; conditions: 6 minutes
Description: as §5
as §1, with “state. […]” for “state.”
as §6, §4

STAT3 (Tyr705) = assay: Western blot of STAT3 phosphorylation in H4IIE cells; conditions: 6 minutes
Description: as §5
as §1, with “state. […]” for “state.”
as §6, §4

GSK3 (Ser21/9) = assay: Western blot of GSK3 phosphorylation in H4IIE cells; conditions: 6 minutes
Description: as §5
as §1, with “state. […]” for “state.”
as §6, §4

[4] = test system: p70S6K (Thr389 and Thr421); assay: Western blot of p70S6K phosphorylation in H4IIE cells
Description: as §5, §1, §2, §3
Quantification of data obtained on film (Kodak X-omat) was accomplished with a GS800 imaging densitometer (Bio-Rad Laboratories) under nonsaturating conditions with local background subtraction. Although multiple exposures were acquired to ensure the absence of film saturation, the experimental figures typically show longer exposures selected specifically for visual presentation and not necessarily used for data analysis. Graphical data are presented as means±SE for a minimum of three replicate samples.

[5] = insulin-stimulated, 6 min, 15-min preincubation with the inhibitor (None = insulin alone), one experiment

Row | Molecule | phosphorylation of MAPK (FIG. 9) [1] | phosphorylation of MAPK in FAO cells (FIG. 10) [2] | phosphorylation of IRS-1 [3] | phosphorylation of Akt (Akt (Ser473)) | phosphorylation of Src (Src (Tyr527)) | phosphorylation of STAT3 (STAT3 (Tyr705)) | phosphorylation of GSK3 (GSK3 (Ser21/9)) | phosphorylation of p70S6K (Thr421) ([4]; 6 minutes) | phosphorylation of MAPK, stimulation (fold) relative to the control (Table 6) ([1]; insulin treatment, 6 min, 15-min preincubation with PKA/PKC inhibitor (None = insulin alone), one experiment) | p42/44 P-MAPK (Thr202/Tyr204) phosphorylation, stimulation (fold) relative to the control [1, 5] | phosphorylation of p70S6K (Thr389) ([4]; 6 minutes) | p42/44 P-MAPK (Thr202/Tyr204) phosphorylation, stimulation (fold) relative to the control ([1]; BWE-stimulated, 6 min, 15-min preincubation with the inhibitor (None = BWE alone), one experiment) | effect of the inhibitor on insulin- and BWE-stimulated phosphorylation of MAPK ([1]; preincubation with inhibitor, then insulin or BWE for 6 minutes) | effect of the inhibitor on insulin-stimulated phosphorylation of p70S6K (Thr389) ([4]; 15-minute pre-incubation with inhibitor, then INS 6 minutes) | effect of the inhibitor on insulin- and BWE-stimulated phosphorylation of p70S6K (Thr421) ([4]; 15-minute pre-incubation with inhibitor, then INS or BWE 6 minutes)
1 | O[C@H]1[C@H](O)[C@@H](O)[C@H](O)[C@@H](O)[C@H]1O [MI, myo-inositol] | neither D-CI nor MI increased phosphorylation | did not | do not provide comparable stimulation | do not provide comparable stimulation | do not provide comparable stimulation | do not provide comparable stimulation | do not provide comparable stimulation | unable to effect phosphorylation | – | – | – | – | – | – | –
2 | OC1C(O)C(O)C(O)C(O)C1O [D-CI, D-chiro-inositol] | neither D-CI nor MI increased phosphorylation | did not | do not provide comparable stimulation | do not provide comparable stimulation | do not provide comparable stimulation | do not provide comparable stimulation | do not provide comparable stimulation | unable to effect phosphorylation | – | – | – | – | – | – | –
3 | insulin: Insulin (Sigma-Aldrich) dissolved in water, positive comparator | increased the phosphorylation of MAPK | stimulated MAPK phosphorylation | phosphorylated in response to insulin | phosphorylated in response to insulin | phosphorylated in response to insulin | phosphorylated in response to insulin | phosphorylated in response to insulin | stimulates the phosphorylation of p70^S6K on both residues | 3.53 fold | 13.3 fold | stimulates the phosphorylation of p70^S6K on both residues | – | – | – | –
4 | COc1cccc(-c2cc(=O)c3ccccc3o2)c1N [PD98059] | – | – | – | – | – | – | – | – | – | 1 fold | – | 1.00 fold | inhibited | independent of MAPK | MAPK-dependent (PD98059 sensitive)
